# Data: ChEMBL document CHEMBL5360649, “Potential Broad-Spectrum Antimicrobial, Wound Healing, and Disinfectant Cationic Peptide Crafted from Snake Venom” (J Med Chem, 2023)
# Active and inactive are the calls of the source. No cut-off for these calls is given here.
# Key:
# Klebsiella pneumoniae [1] = test: Induction of morphological changes in carbapenem resistant Klebsiella pneumoniae ATCC BAA-1705 assessed as inhibition of cell division by measuring filamented cells at MIC concentration incubated for 60 mins by SEM analysis; assay type: functional, organism-based
# Staphylococcus aureus [2] = test: Antibiofilm activity against preformed biofilm in methicillin-resistant Staphylococcus aureus assessed as decrease in metabolic activity at MIC incubated overnight by MTT assay; assay type: functional, organism-based
# Staphylococcus aureus [3] = test: Bactericidal activity against patient-derived Staphylococcus aureus assessed as reduction in bacterial growth incubated for 24 hrs by Mueller Hinton Agar based plate analysis; assay type: functional
# Cell membrane [4] = test: Induction of inner membrane permeabilization in methicillin-resistant Staphylococcus aureus assessed as increase in fluorescence at 0.5 to 1 times of MIC incubated for 60 mins by PI staining based fluorescence analysis; assay type: subcellular
# [5] = Cytotoxicity against human A549 cells assessed as cell viability at 25 uM incubated for 24 hrs by MTT assay relative to control; assay type: toxicity, cell-based; conditions: read-out: Activity
# Klebsiella pneumoniae [6] = test: Induction of morphological changes in carbapenem resistant Klebsiella pneumoniae ATCC BAA-1705 at MIC concentration incubated for 6 hrs by AFM analysis; assay type: functional, organism-based
# Rattus norvegicus [7] = organism: Rattus norvegicus; test: Induction of wound healing in surgically-induced Albino Wistar rat wound model assessed as proper formation of sebaceous gland at 10 uM measured after 11 days by H&E staining based analysis; assay type: functional; conditions: time 11.0 day
# Klebsiella pneumoniae [8] = test: Antibacterial activity against Klebsiella pneumoniae assessed as cell division block by measuring bacterial filamentation at 0.5 to 1 times of MIC incubated for 30 mins by SYTO9/PI staining based fluorescence microscopic analysis; assay type: functional, organism-based
# Staphylococcus aureus [9] = test: Antibiofilm activity against preformed biofilm in methicillin-resistant Staphylococcus aureus assessed as decrease in cell viability at MIC incubated overnight by MTT assay relative to control; assay type: functional
# Escherichia coli [10] = test: Antibacterial activity against Escherichia coli assessed as cell division block by measuring cellular elongation at 0.5 to 1 times of MIC incubated for 30 mins by SYTO9/PI staining based fluorescence microscopic analysis; assay type: functional, organism-based
# [11] = Stability in human serum assessed as intact peptide remaining at 1 mM measured after 12 hrs by HPLC analysis; assay type: ADME, cell-free; conditions: read-out: Stability
# [12] = Hemolytic activity in human RBC assessed as hemolysis at 3.125 to 12.5 uM incubated for 30 mins under shaking condition by multiplate reader analysis relative to control; assay type: toxicity, cell-based, Erythrocyte; conditions: human red blood cells (RBC), dose 3.125-12.5 µM, read-out: Activity
# Klebsiella pneumoniae [13] = test: Induction of morphological changes in carbapenem resistant Klebsiella pneumoniae ATCC BAA-1705 at MIC concentration incubated for 6 hrs by SEM analysis; assay type: functional, organism-based
# Cell membrane [14] = test: Induction of inner membrane permeabilization in Klebsiella pneumoniae assessed as increase in fluorescence at 0.5 to 1 times of MIC incubated for 60 mins by PI staining based fluorescence analysis; assay type: subcellular
# Escherichia coli [15] = test: Antibacterial activity against Escherichia coli assessed as inhibition of bacterial growth at 1.25 to 40 uM by microtiter plate reader analysis; assay type: functional, organism-based; conditions: dose 1.25-40 µM, time 0.5-8.5 hrs, TDE = time-dependent effect
# Staphylococcus aureus [16] = test: Antibacterial activity against patient-derived methicillin-resistant Staphylococcus aureus assessed as inhibition of bacterial growth incubated for 24 hrs by CLSI protocol based microdilution method; assay type: functional
# Klebsiella pneumoniae [17] = test: Induction of morphological changes in carbapenem resistant Klebsiella pneumoniae ATCC BAA-1705 assessed as membrane damage at MIC concentration incubated for 60 mins by SEM analysis; assay type: functional, organism-based
# Klebsiella pneumoniae [18] = test: Antibiofilm activity against Klebsiella pneumoniae assessed as increase in dead cell proportion at MIC incubated overnight by SYTO9/PI staining based fluorescence analysis; assay type: functional, organism-based
# RAW264.7 = test: Antiinflammatory activity in LPS-induced mouse RAW264.7 cells assessed as increase in TGF-beta1 expression at 5 to 10 uM incubated for 24 hrs by radioimmunoprecipitation based dot-plot analysis; assay type: functional, cell-based; conditions: dose 5-10 µM
# PBMC = test: Effect on cell viability in human PBMC assessed as increase in cell number by measuring rise in cell proliferation percentage at 12.5 uM measured after 12 hrs by lymphocyte proliferation assay (12 hrs incubated Rvb = 478.774%); assay type: toxicity, cell-based
# Klebsiella pneumoniae [19] = test: Antibiofilm activity against Klebsiella pneumoniae assessed as eradication of preformed biofilm at 1 times of MIC incubated for 24 hrs by CV staining based analysis relative to control; assay type: functional
# [20] = Stability in human serum assessed as intact peptide remaining at 1 mM measured after 4 hrs by HPLC analysis; assay type: ADME, cell-free; conditions: read-out: Stability
# [21] = Stability in human serum assessed as intact peptide remaining at 1 mM measured after 8 hrs by HPLC analysis; assay type: ADME, cell-free; conditions: read-out: Stability
# Klebsiella pneumoniae [22] = test: Antibacterial activity against Klebsiella pneumoniae ATCC BAA-1705 assessed as inhibition of bacterial growth incubated for 24 hrs by CLSI protocol based microdilution method; assay type: functional
# Pseudomonas aeruginosa [23] = test: Induction of morphological changes in Pseudomonas aeruginosa assessed as inhibition of cell division by measuring elongated cells at MIC concentration incubated for 60 mins by SEM analysis; assay type: functional, organism-based
# Klebsiella pneumoniae [24] = test: Antibacterial activity against Klebsiella pneumoniae ATCC BAA-1705 assessed as inhibition of bacterial growth at 25 to 100 uM incubated overnight by spotting assay; assay type: functional, organism-based; conditions: dose 25-100 µM
# Klebsiella pneumoniae [25] = test: Antibacterial activity against carbapenem resistance Klebsiella pneumoniae ATCC BAA-1705 assessed as inhibition of bacterial growth at 1.25 to 40 uM by microtiter plate reader analysis; assay type: functional, organism-based; conditions: dose 1.25-40 µM, time 0.5-8.5 hrs, TDE = time-dependent effect
# Rattus norvegicus [26] = organism: Rattus norvegicus; test: Induction of wound healing in surgically-induced Albino Wistar rat wound model assessed as reduction in inflammatory signs at 10 uM measured after 11 days by H&E staining based analysis; assay type: functional; conditions: time 11.0 day
# Pseudomonas aeruginosa [27] = test: Antibacterial activity against Pseudomonas aeruginosa assessed as cell division block by measuring cellular elongation at 0.5 to 1 times of MIC incubated for 30 mins by SYTO9/PI staining based fluorescence microscopic analysis; assay type: functional, organism-based
# Pseudomonas aeruginosa [28] = test: Antibiofilm activity against Pseudomonas aeruginosa assessed as clearance of preformed biofilm at 0.5 times of MIC incubated for 24 hrs by CV staining based analysis relative to control; assay type: functional
# Klebsiella pneumoniae [29] = test: Induction of morphological changes in carbapenem resistant Klebsiella pneumoniae ATCC BAA-1705 assessed as cellular destruction at MIC concentration incubated for 6 hrs by SEM analysis; assay type: functional, organism-based
# Escherichia coli [30] = test: Antibacterial activity against Escherichia coli assessed as inhibition of bacterial growth incubated for 0.5 to 8.5 hrs by microtiter plate reader analysis; assay type: functional, organism-based; conditions: dose 1.25-40 µM, time 0.5-8.5 hrs
# Klebsiella pneumoniae [31] = test: Antibiofilm activity against Klebsiella pneumoniae assessed as eradication of preformed biofilm at 0.5 times of MIC incubated for 24 hrs by CV staining based analysis relative to control; assay type: functional
# [32] = Cytotoxicity against human WI-38 cells assessed as cell viability at 12.5 uM incubated for 24 hrs by MTT assay relative to control; assay type: toxicity, cell-based; conditions: read-out: Activity
# Lipopolysaccharide (LPS) = test: Induction of Escherichia coli O111:B4 Lipopolysaccharide aggregate degradation at 40 uM incubated for 4 hrs by ESI-LC/MS analysis
# [33] = Cytotoxicity against human MCF7 cells assessed as cell viability at 25 uM incubated for 24 hrs by MTT assay relative to control; assay type: toxicity, cell-based; conditions: read-out: Activity
# [34] = Cytotoxicity against human A549 cells assessed as cell viability at 12.5 uM incubated for 24 hrs by MTT assay relative to control; assay type: toxicity, cell-based; conditions: read-out: Activity
substance,measurement,setting,value
H-FLPIIKWVKKFFWRWR-OH,Activity,Klebsiella pneumoniae [1],Active
same,Activity,Staphylococcus aureus [2],Active
same,MBC,Staphylococcus aureus [3],8 µM
same,Activity,Cell membrane [4],Active
same,"viability at 24 h, 25 µM",[5],55.4%
same,Activity,Klebsiella pneumoniae [6],Active
same,Activity,Rattus norvegicus [7],Active
same,Activity,Klebsiella pneumoniae [8],Active
same,Activity,Staphylococcus aureus [9],33.89%
same,Activity,Escherichia coli [10],Active
same,"remaining at 12 h, 1000 µM",[11],54.5%
same,"hemolysis at 0.5 h, up to 12.5 µM",[12],3.22%
same,Activity,Klebsiella pneumoniae [13],Active
same,Activity,Cell membrane [14],Active
same,Activity,Escherichia coli [15],Tde
same,MIC,Staphylococcus aureus [16],6 µM
same,Activity,Klebsiella pneumoniae [17],Active
same,Activity,Klebsiella pneumoniae [18],Active
same,Activity,RAW264.7,Active
same,Activity,PBMC,55.188%
same,Activity,Klebsiella pneumoniae [19],~88%
same,"remaining at 4 h, 1000 µM",[20],82.6%
same,"remaining at 8 h, 1000 µM",[21],61%
same,MIC,Klebsiella pneumoniae [22],8 µM
same,Activity,Pseudomonas aeruginosa [23],Active
same,Activity,Klebsiella pneumoniae [24],Active
same,Activity,Klebsiella pneumoniae [25],Tde
same,Activity,Rattus norvegicus [26],Active
same,Activity,Pseudomonas aeruginosa [27],Active
same,Activity,Pseudomonas aeruginosa [28],~53%
same,Activity,Klebsiella pneumoniae [29],Active
same,Activity,Escherichia coli [30],Dose-Dependent Effect
same,Activity,Klebsiella pneumoniae [31],~56%
same,"viability at 24 h, 12.5 µM",[32],91.5%
same,Activity,Lipopolysaccharide (LPS),Active
same,"viability at 24 h, 25 µM",[33],63.8%
same,"viability at 24 h, 12.5 µM",[34],74.3%
